According to PubChem BioAssay (NCI):
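Briefly, cells in 96-well plates were exposed to five compound concentrations for 48 h, and endpoints were estimated by linear interpolation. The concentration for full growth arrest is given as TGI.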

How the values were obtained:
Test in all cases: DTP human tumour cell line panel, 48 h
[1] = test system: 786-0 renal
[2] = test system: MALME-3M melanoma
[3] = test system: SNB-19 CNS
[4] = test system: SF-295 CNS
[5] = test system: BT-549 breast
[6] = test system: NCI-H460 lung
[7] = test system: MOLT-4 leukemia
[8] = test system: RPMI-8226 leukemia
[9] = test system: DU-145 prostate
[10] = test system: OVCAR-4 ovarian
[11] = test system: U251 CNS
[12] = test system: HS 578T breast
[13] = test system: OVCAR-5 ovarian
[14] = test system: SR leukemia
[15] = test system: K-562 leukemia
[16] = test system: CCRF-CEM leukemia
[17] = test system: SK-MEL-2 melanoma
[18] = test system: SNB-75 CNS
[19] = test system: CAKI-1 renal
[20] = test system: HCC-2998 colon
[21] = test system: SF-268 CNS
[22] = test system: NCI-H23 lung
[23] = test system: T-47D breast
[24] = test system: UACC-257 melanoma
[25] = test system: ACHN renal
[26] = test system: COLO 205 colon
[27] = test system: IGROV1 ovarian
[28] = test system: MCF7 breast
[29] = test system: MDA-MB-231 breast
[30] = test system: OVCAR-3 ovarian
[31] = test system: LOX IMVI melanoma
[32] = test system: A549 NSCLC
[33] = test system: HT29 colon
[34] = test system: RXF 393 renal
[35] = test system: SK-OV-3 ovarian
[36] = test system: UO-31 renal
[37] = test system: M14 melanoma
[38] = test system: NCI/ADR-RES ovarian
[39] = test system: SW-620 colon
[40] = test system: TK-10 renal
[41] = test system: MDA-MB-435
[42] = test system: PC-3 prostate
[43] = test system: HL-60(TB) leukemia
[44] = test system: HOP-62 NSCLC
[45] = test system: HCT-15 colon
[46] = test system: SK-MEL-5 melanoma

In the case of `[N-]=[N+]=Nc1c(Cc2ccccc2)c(=O)oc2ccccc12`, the TGI [1] is reported as greater than 100 µM, the TGI [2] is reported as greater than 100 µM and the TGI [3] is reported as greater than 100 µM. For the same compound, the TGI [4] was greater than 100 µM, the TGI [5] was 46.9 µM and the TGI [6] was 57.3 µM. The TGI [7] was 26.2 µM, the TGI [8] was greater than 100 µM and the TGI [9] was greater than 100 µM. The TGI [10] was greater than 100 µM, the TGI [11] was 69.7 µM and the TGI [12] was 61.3 µM. It also gave a TGI [13] greater than 100 µM, a TGI [14] greater than 100 µM and a TGI [15] of 86.9 µM. It also gave a TGI [16] of 45.8 µM, a TGI [17] of 78.8 µM and a TGI [18] greater than 100 µM. It also gave a TGI [19] greater than 100 µM, a TGI [20] of 62.1 µM and a TGI [21] of 62.1 µM. The TGI [22] was 78.1 µM, the TGI [23] was greater than 100 µM and the TGI [24] was greater than 100 µM. The TGI [25] was greater than 100 µM, the TGI [26] was 98.4 µM and the TGI [27] was 70.6 µM. The TGI [28] was 70.9 µM, the TGI [29] was greater than 100 µM and the TGI [30] was greater than 100 µM. It also gave a TGI [31] of 28.4 µM, a TGI [32] greater than 100 µM and a TGI [33] of 54.5 µM. For the same compound, the TGI [34] was 38 µM, the TGI [35] was greater than 100 µM and the TGI [36] was greater than 100 µM. For the same compound, the TGI [37] was 62.3 µM, the TGI [38] was greater than 100 µM and the TGI [39] was 39.7 µM. The TGI [40] was 60.4 µM, the TGI [41] was 58.5 µM and the TGI [42] was greater than 100 µM. For the same compound, the TGI [43] was greater than 100 µM, the TGI [44] was 50.3 µM and the TGI [45] was greater than 100 µM. It also gave a TGI [46] of 20.2 µM.
